Experiments:
[1] = biological target: 3',5'-cyclic-AMP phosphodiesterase 4B (Homo sapiens, UniProt Q07343); assay: Inhibition of PDE4B isolated from human U937 cells using [3H]-cAMP as substrate after 30 mins; assay type: cell-free, U-937
[2] = biological target: 3',5'-cyclic-AMP phosphodiesterase 4D (Homo sapiens) (UniProt Q08499); assay: Inhibition of PDE4D isolated from human U937 cells using [3H]-cAMP as substrate at 20 uM after 30 mins; assay type: cell-free; details: U-937
Sequence of 3',5'-cyclic-AMP phosphodiesterase 4D (Homo sapiens) (Q08499 whole entry): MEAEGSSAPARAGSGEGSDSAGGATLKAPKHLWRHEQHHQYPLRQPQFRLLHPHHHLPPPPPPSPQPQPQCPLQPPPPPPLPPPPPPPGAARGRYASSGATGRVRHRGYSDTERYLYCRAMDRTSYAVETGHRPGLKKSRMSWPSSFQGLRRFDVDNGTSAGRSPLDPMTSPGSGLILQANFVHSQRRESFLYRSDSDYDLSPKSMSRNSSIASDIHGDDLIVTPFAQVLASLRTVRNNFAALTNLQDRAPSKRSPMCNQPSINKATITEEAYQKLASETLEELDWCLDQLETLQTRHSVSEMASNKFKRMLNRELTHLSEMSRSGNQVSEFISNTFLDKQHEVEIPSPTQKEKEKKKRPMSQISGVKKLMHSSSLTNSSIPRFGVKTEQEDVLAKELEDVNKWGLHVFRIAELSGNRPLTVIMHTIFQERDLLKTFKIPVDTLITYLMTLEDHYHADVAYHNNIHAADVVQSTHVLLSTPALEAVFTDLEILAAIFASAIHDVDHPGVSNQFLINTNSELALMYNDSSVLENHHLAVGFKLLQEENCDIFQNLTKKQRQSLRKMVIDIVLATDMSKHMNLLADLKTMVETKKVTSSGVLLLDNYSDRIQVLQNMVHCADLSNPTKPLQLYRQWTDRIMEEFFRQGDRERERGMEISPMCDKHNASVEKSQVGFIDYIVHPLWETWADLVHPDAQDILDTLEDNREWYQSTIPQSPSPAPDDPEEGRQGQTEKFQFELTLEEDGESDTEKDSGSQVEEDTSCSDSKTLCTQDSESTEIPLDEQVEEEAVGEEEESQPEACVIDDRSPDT

Sequence of 3',5'-cyclic-AMP phosphodiesterase 4B (Q07343 whole entry): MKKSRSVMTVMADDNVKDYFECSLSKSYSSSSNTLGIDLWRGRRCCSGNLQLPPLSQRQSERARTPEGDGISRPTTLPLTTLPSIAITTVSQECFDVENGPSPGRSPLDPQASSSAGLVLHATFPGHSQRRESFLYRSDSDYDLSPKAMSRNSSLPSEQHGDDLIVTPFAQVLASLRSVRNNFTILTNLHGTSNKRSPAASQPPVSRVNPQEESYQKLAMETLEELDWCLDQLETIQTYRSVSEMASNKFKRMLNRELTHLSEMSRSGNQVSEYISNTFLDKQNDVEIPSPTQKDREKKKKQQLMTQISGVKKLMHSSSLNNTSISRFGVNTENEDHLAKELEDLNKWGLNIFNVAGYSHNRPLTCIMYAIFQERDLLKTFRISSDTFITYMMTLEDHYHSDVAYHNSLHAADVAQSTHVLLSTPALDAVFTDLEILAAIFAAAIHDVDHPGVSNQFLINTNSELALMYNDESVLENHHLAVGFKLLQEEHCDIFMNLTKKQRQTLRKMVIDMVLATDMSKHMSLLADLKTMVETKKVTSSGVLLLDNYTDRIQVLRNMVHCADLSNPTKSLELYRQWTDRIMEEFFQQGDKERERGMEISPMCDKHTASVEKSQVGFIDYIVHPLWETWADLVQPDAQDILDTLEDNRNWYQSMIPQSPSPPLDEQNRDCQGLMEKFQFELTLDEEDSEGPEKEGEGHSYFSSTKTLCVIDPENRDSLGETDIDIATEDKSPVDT

Compound	IC50 [1] [µM]	inhibition [2] [%]
COc1cc2c(cc1OC1CCCC1)CN(Cc1ccncc1)CC2	38.1	–
COc1cc(CN2CCc3cc(OC)c(OC4CCCC4)cc3C2)ccc1O	26.8	–
COc1cc(C(=O)N2CCc3cc(OC)c(OC4CCCC4)cc3C2)ccc1O	2.3	17.4
COc1cc2c(cc1OC1CCCC1)CN(C(=O)c1ccccn1)CC2	37.9	–
COc1cc2c(cc1OC1CCCC1)CN(C(=O)[C@H]1CC[C@H](N)CC1)CC2	> 50	–
COc1cc2c(cc1OC1CCCC1)CN(C(=O)c1ccncc1)CC2	15.7	12.1
COc1cc2c(cc1OC1CCCC1)CN(Cc1ccccc1F)CC2	43	–
COc1cc2c(cc1OC1CCCC1)CN(C(=O)C1=C[C@@H](O)[C@@H](O)[C@H](O)C1)CC2	> 50	–

The next lines start with the values.

IC50 [1] [µM]	inhibition [2] [%]	Compound
23.3	–	COc1cc2c(cc1OC1CCCC1)CN(C(=O)c1ccccc1F)CC2
15.5	15.3	COc1cc2c(cc1OC1CCCC1)CN(C(=O)c1ccccc1Cl)CC2
37	–	COc1cc2c(cc1OC1CCCC1)CN(C(=O)c1ccccc1OC)CC2
23.5	–	COc1cc2c(cc1OC1CCCC1)CN(C(=O)c1ccccc1)CC2

From ChEMBL document CHEMBL3616392, “Design, synthesis and biological evaluation of novel tetrahydroisoquinoline derivatives as potential PDE4 inhibitors” (Bioorg Med Chem Lett, 2015)
